# Values quoted from earlier work, collected in patent US7383946B2 (priority 2004, dated 2008).
structure (smiles),measurement,value
"[O][Cl+][O-] [Chlorine dioxide, chlorine dioxide]",concentration at which chlorine dioxide is stable in water and aqueous solutions,approximately 10 g/L
